# Measured values published in patent US9113629B2, “4-amino-6-(4-substituted-phenyl)-picolinates and 6-amino-2-(4-substituted-phenyl)-pyrimidine-4-carboxylates and their use as herbicides” (DOW AGROSCIENCES LLC, priority 2013, dated 2015).
# Where two headings read alike, the source gives them in different places.
# Tests used:
# [1] = tested on: Key Grass and Sedge Weeds as well as Grass Crops; assay: Post-emergent Test II herbicidal activity (Table 6); format: in vivo; details: post-emergence, 336 h; for pest or weed control at 70 g/ha: 70 g ai/ha; for pest or weed control at 140 g/ha: 140 g ai/ha
# Procedure, shortened: (§1)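 Scoring: visual, 0–100% injury at 14 d versus untreated. Treatment: overhead track spray, 187 L/ha, onto plants at the first–second true leaf stage. Growth: greenhouse, ~15 h light, 23–29 °C day, 22–28 °C night.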
# [2] = tested on: Key Broadleaf Weed and Crop Species; assay: Post-emergent Test II herbicidal activity (Table 5); format: in vivo; details: post-emergence, 336 h, 14 days after application; for pest or weed control at 70 g/ha: application rate 70 g ai/ha; for pest or weed control at 140 g/ha: application rate 140 g ai/ha
# Procedure, shortened: as §1
# [3] = CYPES: yellow nutsedge (Cyperus esculentus), read-out: Visual Growth Reduction (%) 14 Days After Application, CYPES
# [4] = DIGSA: crabgrass (Digitaria sanguinalis), read-out: Visual Growth Reduction (%) 14 Days After Application, DIGSA
# [5] = ECHCG: barnyardgrass (Echinochloa crus-galli), read-out: Visual Growth Reduction (%) 14 Days After Application, ECHCG
# [6] = ORYSA: rice (Oryza sativa), crop, read-out: Visual Growth Reduction (%) 14 Days After Application, ORYSA
# [7] = SETFA: giant foxtail (Setaria faberi), read-out: Visual Growth Reduction (%) 14 Days After Application, SETFA
# [8] = SORVU: grain sorghum (Sorghum vulgare), read-out: Visual Growth Reduction (%) 14 Days After Application, SORVU
# [9] = TRZSS (wheat, Triticum aestivum), crop, read-out: Visual Growth Reduction (%) 14 Days After Application, TRZSS
# [10] = ZEAMX: maize, corn (Zea mays), crop, read-out: Visual Growth Reduction (%) 14 Days After Application, ZEAMX
# [11] = ABUTH: velvetleaf (Abutilon theophrasti), read-out: Visual Growth Reduction (%) 14 Days After Application, ABUTH
# [12] = AMARE: redroot pigweed (Amaranthus retroflexus), read-out: Visual Growth Reduction (%) 14 Days After Application, AMARE
# [13] = BRSNN: oilseed-rape, canola (Brassica napus), read-out: Visual Growth Reduction (%) 14 Days After Application, BRSNN
# [14] = CHEAL: lambsquarters (Chenopodium album), read-out: Visual Growth Reduction (%) 14 Days After Application, CHEAL
# [15] = EPHHL: wild poinsettia (Euphorbia heterophylla), read-out: Visual Growth Reduction (%) 14 Days After Application, EPHHL
# [16] = HELAN: sunflower (Helianthus annuus), read-out: Visual Growth Reduction (%) 14 Days After Application, HELAN
# [17] = VIOTR: wild pansy (Viola tricolor), read-out: Visual Growth Reduction (%) 14 Days After Application, VIOTR
SMILES,"pest or weed control at 70 g/ha [1, 3]","pest or weed control at 140 g/ha [1, 3]","pest or weed control at 70 g/ha [1, 4]","pest or weed control at 140 g/ha [1, 4]","pest or weed control at 70 g/ha [1, 5]","pest or weed control at 140 g/ha [1, 5]","pest or weed control at 70 g/ha [1, 6]","pest or weed control at 140 g/ha [1, 6]","pest or weed control at 70 g/ha [1, 7]","pest or weed control at 140 g/ha [1, 7]","pest or weed control at 70 g/ha [1, 8]","pest or weed control at 140 g/ha [1, 8]","pest or weed control at 70 g/ha [1, 9]","pest or weed control at 140 g/ha [1, 9]","pest or weed control at 70 g/ha [1, 10]","pest or weed control at 140 g/ha [1, 10]","pest or weed control at 70 g/ha [2, 11]","pest or weed control at 140 g/ha [2, 11]","pest or weed control at 70 g/ha [2, 12]","pest or weed control at 140 g/ha [2, 12]",further results
COC(=O)c1nc(-c2ccc(C(F)F)c(F)c2)cc(N)c1Cl [Compound 196],85 to 94%,85 to 94%,45 to 59%,45 to 59%,95 to 100%,95 to 100%,0 to 29%,0 to 29%,0 to 29%,0 to 29%,75 to 84%,75 to 84%,0 to 29%,0 to 29%,0 to 29%,75 to 84%,95 to 100%,95 to 100%,95 to 100%,95 to 100%,"pest or weed control at 70 g/ha [2, 13]: 30 to 44%; pest or weed control at 140 g/ha [2, 13]: 30 to 44%; pest or weed control at 70 g/ha [2, 14]: 95 to 100%; pest or weed control at 140 g/ha [2, 14]: 95 to 100%; pest or weed control at 70 g/ha [2, 15]: 95 to 100%; pest or weed control at 140 g/ha [2, 15]: 95 to 100%; pest or weed control at 70 g/ha [2, 16]: 95 to 100%; pest or weed control at 140 g/ha [2, 16]: 95 to 100%; pest or weed control at 70 g/ha [2, 17]: 0 to 29%; pest or weed control at 140 g/ha [2, 17]: 0 to 29%"
COC(=O)c1nc(-c2cccc(F)c2F)c(F)c(N)c1Cl [Compound 199],0 to 29%,0 to 29%,0 to 29%,0 to 29%,0 to 29%,0 to 29%,0 to 29%,0 to 29%,0 to 29%,0 to 29%,0 to 29%,0 to 29%,0 to 29%,0 to 29%,0 to 29%,0 to 29%,95 to 100%,95 to 100%,95 to 100%,95 to 100%,"pest or weed control at 70 g/ha [2, 13]: 85 to 94%; pest or weed control at 140 g/ha [2, 13]: 95 to 100%; pest or weed control at 70 g/ha [2, 14]: 85 to 94%; pest or weed control at 140 g/ha [2, 14]: 95 to 100%; pest or weed control at 70 g/ha [2, 15]: 60 to 74%; pest or weed control at 140 g/ha [2, 15]: 85 to 94%; pest or weed control at 70 g/ha [2, 16]: 75 to 84%; pest or weed control at 140 g/ha [2, 16]: 95 to 100%; pest or weed control at 70 g/ha [2, 17]: 0 to 29%; pest or weed control at 140 g/ha [2, 17]: 30 to 44%"
